# Measurements taken from PubChem BioAssay (NCI).
#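 Tested at 5 concentrations; 48 h exposure; 96-well plates; endpoints linearly interpolated, else capped at highest concentration. TGI marks complete inhibition of growth.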
# Columns and labels:
# Experiment in all cases: NCI anticancer screen, dose series, 48 h
# [1] = test system: K-562 leukemia
# [2] = test system: SK-MEL-28 melanoma
# [3] = test system: HCT-116 colon
# [4] = test system: OVCAR-3 ovarian
# [5] = test system: M14 melanoma
# [6] = test system: T-47D breast
# [7] = test system: UACC-62 melanoma
# [8] = test system: CCRF-CEM leukemia
# [9] = test system: MDA-MB-435
# [10] = test system: NCI/ADR-RES ovarian
# [11] = test system: NCI-H522 lung
# [12] = test system: SK-MEL-5 melanoma
# [13] = test system: OVCAR-5 ovarian
# [14] = test system: LOX IMVI melanoma
# [15] = test system: SF-295 CNS
# [16] = test system: SNB-19 CNS
# [17] = test system: A498 renal
# [18] = test system: MDA-MB-231 breast
# [19] = test system: EKVX NSCLC
# [20] = test system: SNB-75 CNS
# [21] = test system: NCI-H23 lung
# [22] = test system: HOP-92 NSCLC
# [23] = test system: COLO 205 colon
# [24] = test system: RPMI-8226 leukemia
# [25] = test system: MALME-3M melanoma
# [26] = test system: A549 NSCLC
# [27] = test system: NCI-H460 lung
# [28] = test system: SN12C renal
# [29] = test system: OVCAR-4 ovarian
# [30] = test system: MOLT-4 leukemia
# [31] = test system: ACHN renal
# [32] = test system: BT-549 breast
# [33] = test system: IGROV1 ovarian
# [34] = test system: SK-OV-3 ovarian
# [35] = test system: HS 578T breast
# [36] = test system: SK-MEL-2 melanoma
# [37] = test system: DU-145 prostate
# [38] = test system: HCC-2998 colon
# [39] = test system: SR leukemia
# [40] = test system: KM12 colon
# [41] = test system: TK-10 renal
# [42] = test system: MCF7 breast
# [43] = test system: MDA-N
# [44] = test system: SF-268 CNS
# [45] = test system: RXF 393 renal
# [46] = test system: U251 CNS
# [47] = test system: HOP-62 NSCLC
# [48] = test system: UACC-257 melanoma
# [49] = test system: SW-620 colon
# [50] = test system: HCT-15 colon
# [51] = test system: 786-0 renal
# [52] = test system: OVCAR-8 ovarian
# [53] = test system: CAKI-1 renal
# [54] = test system: UO-31 renal
# [55] = test system: PC-3 prostate
# [56] = test system: HT29 colon
# [57] = test system: SF-539 CNS
# [58] = test system: NCI-H226 lung
# [59] = test system: HL-60(TB) leukemia
structure (smiles),measurement,setting,value
CCCCCCCC/C=C(\Br)C(O)C(Br)Br (stereo not given),TGI,[1],> 100 µM
same,TGI,[2],> 100 µM
same,TGI,[3],> 100 µM
same,TGI,[4],34.8 µM
same,TGI,[5],48.5 µM
same,TGI,[6],> 100 µM
same,TGI,[7],41.6 µM
same,TGI,[8],35.5 µM
same,TGI,[9],59.1 µM
same,TGI,[10],57.2 µM
same,TGI,[11],38.4 µM
same,TGI,[12],34 µM
same,TGI,[13],43.6 µM
same,TGI,[14],41.2 µM
same,TGI,[15],41.5 µM
same,TGI,[16],> 100 µM
same,TGI,[17],68.1 µM
same,TGI,[18],> 100 µM
same,TGI,[19],92.9 µM
same,TGI,[20],> 100 µM
same,TGI,[21],47.7 µM
same,TGI,[22],42.9 µM
same,TGI,[23],41 µM
same,TGI,[24],> 100 µM
same,TGI,[25],43 µM
same,TGI,[26],> 100 µM
same,TGI,[27],86.8 µM
same,TGI,[28],36.6 µM
same,TGI,[29],85.9 µM
same,TGI,[30],> 100 µM
same,TGI,[31],51.9 µM
same,TGI,[32],44.8 µM
same,TGI,[33],59.1 µM
same,TGI,[34],90.6 µM
same,TGI,[35],74.7 µM
same,TGI,[36],63.7 µM
same,TGI,[37],> 100 µM
same,TGI,[38],48 µM
same,TGI,[39],> 100 µM
same,TGI,[40],59.6 µM
same,TGI,[41],> 100 µM
same,TGI,[42],98.3 µM
same,TGI,[43],54.1 µM
same,TGI,[44],53.1 µM
same,TGI,[45],37.8 µM
same,TGI,[46],> 100 µM
same,TGI,[47],47.6 µM
same,TGI,[48],76.1 µM
same,TGI,[49],34.2 µM
same,TGI,[50],47.2 µM
same,TGI,[51],39.7 µM
same,TGI,[52],49.5 µM
same,TGI,[53],63.7 µM
same,TGI,[54],38.8 µM
same,TGI,[55],> 100 µM
COC(=O)C1(Cc2ccccc2)Cc2cc3c(cc2C1)CCC3,TGI,[1],41.6 µM
same,TGI,[2],> 100 µM
same,TGI,[56],24.6 µM
same,TGI,[3],76.9 µM
same,TGI,[4],> 100 µM
same,TGI,[5],> 100 µM
same,TGI,[6],75.9 µM
same,TGI,[7],> 100 µM
same,TGI,[8],31.6 µM
same,TGI,[9],35.6 µM
same,TGI,[10],> 100 µM
same,TGI,[11],56.4 µM
same,TGI,[12],33.7 µM
same,TGI,[13],82.6 µM
same,TGI,[14],34.7 µM
same,TGI,[15],> 100 µM
same,TGI,[16],> 100 µM
same,TGI,[17],82.4 µM
same,TGI,[18],> 100 µM
same,TGI,[57],> 100 µM
same,TGI,[19],60.9 µM
same,TGI,[20],95.4 µM
same,TGI,[58],63.3 µM
same,TGI,[21],> 100 µM
same,TGI,[22],41.2 µM
same,TGI,[23],33.3 µM
same,TGI,[24],36.5 µM
same,TGI,[59],31.3 µM
same,TGI,[25],52.6 µM
same,TGI,[26],> 100 µM
same,TGI,[27],> 100 µM
same,TGI,[28],> 100 µM
same,TGI,[29],> 100 µM
same,TGI,[30],35 µM
same,TGI,[31],> 100 µM
same,TGI,[32],> 100 µM
same,TGI,[33],> 100 µM
same,TGI,[34],> 100 µM
same,TGI,[35],> 100 µM
same,TGI,[36],40.1 µM
same,TGI,[37],> 100 µM
same,TGI,[38],> 100 µM
same,TGI,[39],31.3 µM
same,TGI,[40],76.4 µM
same,TGI,[41],> 100 µM
same,TGI,[42],42.5 µM
same,TGI,[43],53.5 µM
same,TGI,[44],> 100 µM
same,TGI,[45],50.7 µM
same,TGI,[46],64.9 µM
same,TGI,[47],> 100 µM
same,TGI,[48],78.8 µM
same,TGI,[49],> 100 µM
same,TGI,[50],> 100 µM
same,TGI,[51],> 100 µM
same,TGI,[52],88.9 µM
same,TGI,[54],> 100 µM
same,TGI,[55],> 100 µM
Cc1cccc2c1CC1(Cc3ccccc3C1=O)C2=O (stereo not given),TGI,[1],> 100 µM
same,TGI,[2],> 100 µM
same,TGI,[56],> 100 µM
same,TGI,[3],> 100 µM
same,TGI,[4],> 100 µM
same,TGI,[5],> 100 µM
same,TGI,[6],> 100 µM
same,TGI,[7],> 100 µM
same,TGI,[8],> 100 µM
same,TGI,[9],> 100 µM
same,TGI,[10],> 100 µM
same,TGI,[11],> 100 µM
same,TGI,[12],> 100 µM
same,TGI,[13],> 100 µM
same,TGI,[14],> 100 µM
same,TGI,[15],> 100 µM
same,TGI,[16],> 100 µM
same,TGI,[17],> 100 µM
same,TGI,[18],> 100 µM
same,TGI,[57],> 100 µM
same,TGI,[19],> 100 µM
same,TGI,[20],> 100 µM
same,TGI,[58],> 100 µM
same,TGI,[21],> 100 µM
same,TGI,[22],> 100 µM
same,TGI,[23],> 100 µM
same,TGI,[24],> 100 µM
same,TGI,[59],> 100 µM
same,TGI,[25],> 100 µM
same,TGI,[26],> 100 µM
same,TGI,[27],> 100 µM
same,TGI,[28],> 100 µM
same,TGI,[29],> 100 µM
same,TGI,[30],> 100 µM
same,TGI,[31],> 100 µM
same,TGI,[32],80.6 µM
same,TGI,[33],> 100 µM
same,TGI,[34],99.6 µM
same,TGI,[35],> 100 µM
same,TGI,[37],> 100 µM
same,TGI,[38],> 100 µM
same,TGI,[39],> 100 µM
same,TGI,[40],> 100 µM
same,TGI,[41],> 100 µM
same,TGI,[42],> 100 µM
same,TGI,[43],> 100 µM
same,TGI,[44],> 100 µM
same,TGI,[45],> 100 µM
same,TGI,[46],> 100 µM
same,TGI,[47],> 100 µM
same,TGI,[48],> 100 µM
same,TGI,[49],> 100 µM
same,TGI,[50],> 100 µM
same,TGI,[51],> 100 µM
same,TGI,[52],> 100 µM
same,TGI,[54],> 100 µM
same,TGI,[55],> 100 µM
CCn1c2ccccc2c2nnc(NCCCO)nc21,TGI,[1],> 100 µM
same,TGI,[2],> 100 µM
same,TGI,[56],> 100 µM
same,TGI,[3],> 100 µM
same,TGI,[4],> 100 µM
same,TGI,[5],> 100 µM
same,TGI,[6],> 100 µM
same,TGI,[7],> 100 µM
same,TGI,[8],> 100 µM
same,TGI,[9],> 100 µM
same,TGI,[10],> 100 µM
same,TGI,[11],> 100 µM
same,TGI,[12],> 100 µM
same,TGI,[13],> 100 µM
same,TGI,[14],> 100 µM
same,TGI,[15],> 100 µM
same,TGI,[16],> 100 µM
same,TGI,[17],> 100 µM
same,TGI,[18],> 100 µM
same,TGI,[57],> 100 µM
same,TGI,[19],> 100 µM
same,TGI,[20],> 100 µM
same,TGI,[58],> 100 µM
same,TGI,[21],> 100 µM
same,TGI,[22],> 100 µM
same,TGI,[23],> 100 µM
same,TGI,[24],> 100 µM
same,TGI,[59],> 100 µM
same,TGI,[25],> 100 µM
same,TGI,[26],> 100 µM
same,TGI,[27],> 100 µM
same,TGI,[28],> 100 µM
same,TGI,[29],> 100 µM
same,TGI,[30],> 100 µM
same,TGI,[31],> 100 µM
same,TGI,[32],> 100 µM
same,TGI,[33],> 100 µM
same,TGI,[34],> 100 µM
same,TGI,[35],> 100 µM
same,TGI,[36],> 100 µM
same,TGI,[37],> 100 µM
same,TGI,[39],> 100 µM
same,TGI,[40],> 100 µM
same,TGI,[41],> 100 µM
same,TGI,[42],> 100 µM
same,TGI,[43],> 100 µM
same,TGI,[44],> 100 µM
same,TGI,[45],> 100 µM
same,TGI,[46],> 100 µM
same,TGI,[47],> 100 µM
same,TGI,[48],> 100 µM
same,TGI,[49],> 100 µM
same,TGI,[50],> 100 µM
same,TGI,[51],> 100 µM
same,TGI,[52],> 100 µM
same,TGI,[53],> 100 µM
same,TGI,[55],> 100 µM
CN(C)C(=S)/N=C1\SC(=Nc2ccccc2)C(=Nc2ccccc2)N1c1ccc([N+](=O)[O-])cc1,TGI,[1],> 100 µM
same,TGI,[2],> 100 µM
same,TGI,[56],> 100 µM
same,TGI,[3],> 100 µM
same,TGI,[4],> 100 µM
same,TGI,[5],> 100 µM
same,TGI,[6],> 100 µM
same,TGI,[7],> 100 µM
same,TGI,[8],> 100 µM
same,TGI,[9],> 100 µM
same,TGI,[10],> 100 µM
same,TGI,[11],> 100 µM
same,TGI,[12],> 100 µM
same,TGI,[13],> 100 µM
same,TGI,[15],> 100 µM
same,TGI,[16],> 100 µM
same,TGI,[17],> 100 µM
same,TGI,[18],> 100 µM
same,TGI,[20],> 100 µM
same,TGI,[58],> 100 µM
same,TGI,[21],> 100 µM
same,TGI,[22],> 100 µM
same,TGI,[23],> 100 µM
same,TGI,[24],> 100 µM
same,TGI,[59],> 100 µM
same,TGI,[25],> 100 µM
same,TGI,[27],> 100 µM
same,TGI,[28],> 100 µM
same,TGI,[30],> 100 µM
same,TGI,[32],> 100 µM
same,TGI,[33],> 100 µM
same,TGI,[34],> 100 µM
same,TGI,[35],> 100 µM
same,TGI,[36],> 100 µM
same,TGI,[37],> 100 µM
same,TGI,[38],> 100 µM
same,TGI,[39],> 100 µM
same,TGI,[40],> 100 µM
same,TGI,[42],> 100 µM
same,TGI,[43],> 100 µM
same,TGI,[45],> 100 µM
same,TGI,[46],> 100 µM
same,TGI,[47],> 100 µM
same,TGI,[50],> 100 µM
same,TGI,[52],> 100 µM
same,TGI,[53],> 100 µM
same,TGI,[54],> 100 µM
same,TGI,[55],> 100 µM
